Experimental data published in EPA's ToxRefDB 2.

Legend:
rat [1] = conditions: Neurotoxicity screening battery, wistar, Oral, Feed, dose end: 90 day, group: cannot be grouped
rabbit [2] = conditions: Prenatal developmental toxicity study, himalayan, Oral, Gavage/Intubation, dose end: 19 GD
rat [3] = conditions: Combined chronic toxicity/carcinogenicity, sprague dawley, Oral, Feed, dose end: 115 week
dog [4] = conditions: Chronic toxicity, beagle, Oral, Feed, dose end: 53 week
rabbit [5] = conditions: Prenatal developmental toxicity study, himalayan, Oral, Gavage/Intubation, dose end: 18 GD
rat [6] = conditions: Subchronic oral toxicity in rodents, sprague dawley, Feed, dose end: 13 week
mouse [7] = conditions: Prenatal developmental toxicity study, cd1, Oral, [Not Specified], dose end: 14 GD
mouse [8] = conditions: Prenatal developmental toxicity study, cd1, Oral, Gavage/Intubation, dose end: 15 GD
mouse [9] = conditions: Multigenerational reproductive toxicity study, cd1, Oral, Water, dose end: 2 generation, group: offspring
rat [10] = conditions: Carcinogenicity; other; Oral; Feed; dose end: 24 month; group: systemic; systemic / pathology microscopic / [other] / [other]
rat [11] = conditions: Prenatal developmental toxicity study, sprague dawley, Oral, Gavage/Intubation, dose end: 15 GD
rat [12] = conditions: Subchronic oral toxicity in rodents, fischer, Feed, dose end: 13 week, group: systemic
mouse [13] = conditions: Carcinogenicity; other; Oral; Feed; dose end: 104 week; group: systemic; systemic / pathology microscopic / eye / cataract + systemic / pathology microscopic / kidney / vacuolization
rat [14] = conditions: Combined chronic toxicity/carcinogenicity; fischer; Oral; [Not Specified]; dose end: 105 week; group: systemic; systemic / in life observation / body weight / body weight gain + systemic / pathology microscopic / kidney / cytoplasmic alteration + …
rat [15] = conditions: Subchronic oral toxicity in rodents, sprague dawley, Feed, dose end: 13 week, group: systemic, systemic / clinical chemistry / protein / protein + systemic / in life observation / body weight / body weight + systemic / in life …
rabbit [16] = conditions: Prenatal developmental toxicity study, new zealand white, Oral, Gavage/Intubation, dose end: 18 GD
mouse [17] = conditions: Carcinogenicity, cd1, Oral, Feed, dose end: 94 week, group: systemic
rat [18] = conditions: Combined chronic toxicity/carcinogenicity; sprague dawley; Oral; Feed; dose end: 24 month; group: systemic; systemic / in life observation / body weight / body weight + systemic / in life observation / body weight / body weight gain + systemic / …
dog [19] = conditions: Subchronic oral toxicity in nonrodent, beagle, Feed, dose end: 90 day, group: systemic
rat [20] = conditions: Multigenerational reproductive toxicity study, wistar, Oral, Feed, dose end: 2 generation
dog [21] = conditions: Chronic toxicity; beagle; Oral; Feed; dose end: 52 week; group: systemic; systemic / clinical chemistry / alkaline phosphatase (alp/alk) / alkaline phosphatase (alp/alk) + systemic / clinical chemistry / …
[22] = group: developmental, developmental / developmental malformation / bone / cranioschisis + developmental / developmental malformation / bone / exencephaly + …
[23] = group: maternal, systemic / in life observation / clinical signs / swelling
[24] = group: cholinesterase, cholinesterase / cholinesterase / cholinesterase / plasma cholinesterase (che) + cholinesterase / cholinesterase / cholinesterase / brain (…
[25] = group: systemic, systemic / pathology microscopic / liver / eosinophilic focus
[26] = group: cholinesterase, cholinesterase / cholinesterase / cholinesterase / cholinesterase (che)
[27] = group: systemic, systemic / clinical chemistry / alkaline phosphatase (alp/alk) / alkaline phosphatase (alp/alk)
[28] = group: maternal, reproductive / reproductive performance / aborted / aborted + reproductive / reproductive performance / resorptions / resorptions + systemic…
[29] = group: cholinesterase, cholinesterase / cholinesterase / cholinesterase / erythrocyte cholinesterase (che)
[30] = group: systemic, systemic / organ weight / liver / relative to body weight + systemic / pathology microscopic / liver / necrosis
[31] = group: developmental, systemic / in life observation / body weight / offspring (pup) weight gain
[32] = group: maternal, systemic / in life observation / mortality / mortality
[33] = group: developmental, developmental / developmental malformation / bone / incomplete ossification + systemic / in life observation / body weight / fetal weight + …
[34] = group: maternal, systemic / organ weight / uterus / nos + systemic / in life observation / clinical signs / altered breathing rate + systemic / in life …
[35] = systemic / in life observation / body weight / offspring (pup) weight + systemic / organ weight / liver / relative to body weight + systemic…
[36] = group: developmental, developmental / developmental malformation / bone / [other] + developmental / developmental malformation / bone / delayed ossification + …
[37] = group: maternal, systemic / in life observation / body weight / body weight + systemic / in life observation / food consumption / food consumption + systemic…
[38] = systemic / clinical chemistry / creatinine / creatinine + systemic / hematology / erythrocyte (rbc) count differential / erythrocyte (rbc…
[39] = group: developmental, developmental / developmental malformation / bone / [other] + developmental / developmental malformation / bone / misshapen
[40] = group: maternal, reproductive / reproductive performance / aborted / aborted + reproductive / reproductive performance / postimplantation loss / …
[41] = systemic / in life observation / body weight / body weight gain + systemic / organ weight / liver / relative to body weight + systemic / …
[42] = systemic / organ weight / liver / relative to body weight + systemic / pathology microscopic / liver / vacuolization
[43] = systemic / organ weight / liver / relative to body weight + systemic / pathology microscopic / liver / vacuolization + systemic / in life …
[44] = group: offspring, systemic / in life observation / body weight / offspring (pup) weight
[45] = group: parental, systemic / in life observation / body weight / body weight + systemic / in life observation / body weight / body weight gain + systemic / in…

## CC(Cc1ccc(C(C)(C)C)cc1)CN1C[C@@H](C)O[C@@H](C)C1 (stereo partly drawn) [(2R,6S)-Fenpropimorph]
Rat [1]; cholinesterase / cholinesterase / cholinesterase / cholinesterase (che)
  LEL: 0.8 mg/kg/day
Rat [1]; cholinesterase / cholinesterase / cholinesterase / cholinesterase (che) + systemic / clinical chemistry / alanine aminotransferase (alt/sgpt…
  NEL: 0.1 mg/kg/day
Rat [1]; systemic / organ weight / liver / absolute + systemic / organ weight / liver / relative to body weight
  LOAEL: 7.1 mg/kg/day
Rat [1]; systemic / organ weight / liver / absolute + systemic / organ weight / liver / relative to body weight + cholinesterase / cholinesterase / …
  NOAEL: 0.7 mg/kg/day
Rabbit [2]; [22]
  LEL: 30 mg/kg/day
  LOAEL: 30 mg/kg/day
  NEL: 15 mg/kg/day
  NOAEL: 15 mg/kg/day
Rabbit [2]; [23]
  LEL: 30 mg/kg/day
  LOAEL: 30 mg/kg/day
  NEL: 15 mg/kg/day
  NOAEL: 15 mg/kg/day
Rat [3]; [24]
  LEL: 0.2 mg/kg/day
  LOAEL: > 8.8 mg/kg/day
  NEL: < 0.2 mg/kg/day
  NOAEL: ≥ 8.8 mg/kg/day
Rat [3]; [25]
  LEL: 0.2 mg/kg/day
  NEL: < 0.2 mg/kg/day
Rat [3]; group: systemic, systemic / pathology microscopic / liver / hypertrophy + systemic / organ weight / liver / relative to body weight
  NOAEL: 1.7 mg/kg/day
Rat [3]; group: systemic, systemic / pathology microscopic / liver / hypertrophy + systemic / pathology microscopic / liver / eosinophilic focus + systemic / …
  LOAEL: 8.8 mg/kg/day
Dog [4]; [26]
  LEL: 12.3 mg/kg/day
  LOAEL: 12.3 mg/kg/day
  NEL: 3.2 mg/kg/day
  NOAEL: 3.2 mg/kg/day
Dog [4]; [27]
  LEL: 12.3 mg/kg/day
  LOAEL: 12.3 mg/kg/day
  NEL: 3.2 mg/kg/day
  NOAEL: 3.2 mg/kg/day
Rabbit [5]; group: developmental, developmental / developmental malformation / general / [other]
  LOAEL: 36 mg/kg/day
Rabbit [5]; group: developmental, developmental / developmental malformation / general / [other] + developmental / developmental malformation / bone / misshapen
  LEL: 36 mg/kg/day
Rabbit [5]; [28]
  LEL: 36 mg/kg/day
  LOAEL: 36 mg/kg/day
Rat [6]; [26]
  LOAEL: > 1.54 mg/kg/day
  NOAEL: ≥ 1.54 mg/kg/day
Rat [6]; [29]
  LEL: 0.465 mg/kg/day
  NEL: < 0.465 mg/kg/day
Rat [6]; [30]
  LEL: 0.768 mg/kg/day
  LOAEL: 1.54 mg/kg/day
  NEL: 0.382 mg/kg/day
  NOAEL: 0.768 mg/kg/day

## OCCOCCOCCO [Triethylene glycol]
Mouse [7]; [31]
  LEL: 11300 mg/kg/day
  LOAEL: 11300 mg/kg/day
  NEL: 4500 mg/kg/day
  NOAEL: 4500 mg/kg/day
Mouse [7]; [32]
  LEL: 11300 mg/kg/day
  LOAEL: 11300 mg/kg/day
  NEL: 4500 mg/kg/day
  NOAEL: 4500 mg/kg/day
Mouse [8]; group: developmental, developmental / developmental malformation / bone / incomplete ossification + systemic / in life observation / body weight / fetal weight
  LEL: 5630 mg/kg/day
Mouse [8]; [33]
  LOAEL: > 11300 mg/kg/day
  NEL: 563 mg/kg/day
  NOAEL: ≥ 11300 mg/kg/day
Mouse [8]; group: maternal, systemic / organ weight / uterus / nos
  LEL: 5630 mg/kg/day
Mouse [8]; [34]
  LOAEL: > 11300 mg/kg/day
  NEL: 563 mg/kg/day
  NOAEL: ≥ 11300 mg/kg/day
Mouse [9]; systemic / in life observation / body weight / offspring (pup) weight
  LEL: 2000 mg/kg/day
Mouse [9]; systemic / in life observation / body weight / offspring (pup) weight + systemic / organ weight / liver / relative to body weight
  NEL: 400 mg/kg/day
Mouse [9]; [35]
  LOAEL: > 4000 mg/kg/day
  NOAEL: ≥ 4000 mg/kg/day
Rat [10]
  LEL: 4 mg/kg/day
  LOAEL: > 4 mg/kg/day
  NEL: < 4 mg/kg/day
  NOAEL: ≥ 4 mg/kg/day
Rat [11]; [36]
  LEL: 11300 mg/kg/day
  LOAEL: > 11300 mg/kg/day
  NEL: 5630 mg/kg/day
  NOAEL: ≥ 11300 mg/kg/day
Rat [11]; [37]
  LEL: 5630 mg/kg/day
  LOAEL: > 11300 mg/kg/day
  NEL: 1130 mg/kg/day
  NOAEL: ≥ 11300 mg/kg/day

## CCOc1nc(F)cc2nc(S(=O)(=O)Nc3c(Cl)cccc3Cl)nn12 [Diclosulam]
Rat [12]; [38]
  LEL: 50 mg/kg/day
  NEL: < 50 mg/kg/day
  NOAEL: 50 mg/kg/day
Rat [12]; systemic / organ weight / liver / relative to body weight + systemic / pathology microscopic / liver / hypertrophy + systemic / pathology …
  LOAEL: 100 mg/kg/day
Mouse [13]
  LEL: 51.3 mg/kg/day
  LOAEL: 51.3 mg/kg/day
  NEL: < 51.3 mg/kg/day
  NOAEL: < 51.3 mg/kg/day
Rat [14]
  LEL: 102 mg/kg/day
  LOAEL: 102 mg/kg/day
  NEL: 5.1 mg/kg/day
  NOAEL: 5.1 mg/kg/day

## COCC(C)N(C(=O)CCl)c1c(C)csc1C (stereo not given) [Dimethenamid]
Rat [15]
  LEL: 98 mg/kg/day
  LOAEL: 98 mg/kg/day
  NEL: 33.5 mg/kg/day
  NOAEL: 33.5 mg/kg/day
Rabbit [16]; [39]
  LEL: 150 mg/kg/day
  LOAEL: 150 mg/kg/day
  NEL: 75 mg/kg/day
  NOAEL: 75 mg/kg/day
Rabbit [16]; [40]
  LEL: 150 mg/kg/day
  LOAEL: 150 mg/kg/day
  NEL: 75 mg/kg/day
  NOAEL: 75 mg/kg/day
Mouse [17]; systemic / in life observation / body weight / body weight gain
  LOAEL: 200 mg/kg/day
Mouse [17]; [41]
  LEL: 200 mg/kg/day
  NEL: 40.1 mg/kg/day
  NOAEL: 40.1 mg/kg/day
Rat [18]
  LEL: 36 mg/kg/day
  LOAEL: 36 mg/kg/day
  NEL: 5.1 mg/kg/day
  NOAEL: 5.1 mg/kg/day
Dog [19]; [42]
  LEL: 33.6 mg/kg/day
  LOAEL: 33.6 mg/kg/day
Dog [19]; [43]
  NEL: 4.72 mg/kg/day
  NOAEL: 4.72 mg/kg/day
Rat [20]; [44]
  LEL: 150 mg/kg/day
  LOAEL: 150 mg/kg/day
  NEL: 36 mg/kg/day
  NOAEL: 36 mg/kg/day
Rat [20]; [45]
  LEL: 150 mg/kg/day
  LOAEL: 150 mg/kg/day
  NEL: 36 mg/kg/day
  NOAEL: 36 mg/kg/day
Dog [21]
  LEL: 48.7 mg/kg/day
  LOAEL: 48.7 mg/kg/day
  NEL: 10.1 mg/kg/day
  NOAEL: 10.1 mg/kg/day
